Tests used:
[1] = biological target: PfCDPK1 (Plasmodium falciparum (isolate 3D7), UniProt P62344); experiment: biochemical; settings: read-out: PfCDPK1 (% inhibition @ 3 uM)
[2] = biological target: PfCDPK4 (Plasmodium falciparum (isolate 3D7), UniProt Q8IBS5); experiment: biochemical; settings: read-out: PfCDPK4 (% inhibition @ 3 uM)

## Cn1ccc2cc(-c3nn(C(C)(C)C)c4ncnc(N)c34)ccc21 [Compound 139]
[1]
  inhibition at 3 µM: 99%
[2]
  inhibition at 3 µM: 96%

## Nc1ncnc2c1c(-c1ccc(-c3nn(CC4CCNCC4)c4ncnc(N)c34)cc1)nn2CC1CCNCC1 [Compound 101]
[1]
  inhibition at 3 µM: 79%
[2]
  inhibition at 3 µM: 14%

## NC(=O)Cn1nc(Cc2cccc3ccccc23)c2c(N)ncnc21 [Compound 5c, 2-(4-amino-3-(naphthalen-1-ylmethyl)-1H-pyrazolo[3,4-d]pyrimidin-1-yl)acetamide]
[1]
  inhibition at 3 µM: 45%
[2]
  inhibition at 3 µM: 23%

## CC(C)(C)C(=O)Nc1ccc(-c2nn(C(C)(C)C)c3ncnc(N)c23)cc1 [Compound 60, N-(4-(4-amino-1-tert-butyl-1H-pyrazolo[3,4-d]pyrimidin-3-yl)phenyl)pivalamide]
[1]
  inhibition at 3 µM: 98%
[2]
  inhibition at 3 µM: 85%

## CC(C)COc1ccc2cc(-c3nn(CC4CCN(C)CC4)c4ncnc(N)c34)ccc2c1 [Compound 124]
[1]
  inhibition at 3 µM: 98%
[2]
  inhibition at 3 µM: 93%

## NCCCCCC(=O)Nc1nc2ccc(C(=O)c3ccccc3)cc2[nH]1 [Compound 105]
[1]
  inhibition at 3 µM: 71%
[2]
  inhibition at 3 µM: 76%

## COc1cc(COc2cccc(-c3nn(C(C)C)c4ncnc(N)c34)c2)cc(OC)c1 [Compound 22, 3-(3-(3,5-dimethoxybenzyloxy)phenyl)-1-isopropyl-1H-pyrazolo[3,4-d]pyrimidin-4-amine]
[1]
  inhibition at 3 µM: 71%
[2]
  inhibition at 3 µM: 9%

## Nc1ncnc2c1cnn2CC1CCNCC1 [Compound 99]
[1]
  inhibition at 3 µM: 70%
[2]
  inhibition at 3 µM: 5%

## CC(C)(C)n1nc(-c2ccc(NC(=O)CCl)cc2)c2c(N)ncnc21 [Compound 58, N-(4-(4-amino-1-tert-butyl-1H-pyrazolo[3,4-d]pyrimidin-3-yl)phenyl)-2-chloroacetamide]
[1]
  inhibition at 3 µM: 97%
[2]
  inhibition at 3 µM: 50%

## Nc1ncnc2c1c(-c1ccc(Cl)cc1)nn2CC1CCNCC1 [Compound 45, 3-(4-chlorophenyl)-1-(piperidin-4-ylmethyl)-1H-pyrazolo[3,4-d]pyrimidin-4-amine]
[1]
  inhibition at 3 µM: 101%
[2]
  inhibition at 3 µM: 82%

## Cn1ccc2cc(-c3nc(C(C)(C)C)n4ccnc(N)c34)ccc21 [Compound 70, 3-tert-butyl-1-(1-methyl-1H-indol-5-yl)imidazo[1,5-a]pyrazin-8-amine]
[1]
  inhibition at 3 µM: 100%
[2]
  inhibition at 3 µM: 96%

## CC(Oc1ccc2cc(-c3nn(C(C)C)c4ncnc(N)c34)ccc2c1)c1ccccc1 (stereo not drawn) [Compound 53, 1-isopropyl-3-(6-(1-phenylethoxy)naphthalen-2-yl)-1H-pyrazolo[3,4-d]pyrimidin-4-amine]
[1]
  inhibition at 3 µM: 98%
[2]
  inhibition at 3 µM: 57%

## CC(C)(C)n1nc(-c2ccc(NC(=O)Cc3ccccc3)cc2)c2c(N)ncnc21 [Compound 66, N-(4-(4-amino-1-tert-butyl-1H-pyrazolo[3,4-d]pyrimidin-3-yl)phenyl)-2-phenylacetamide]
[1]
  inhibition at 3 µM: 100%
[2]
  inhibition at 3 µM: 77%

## CC(C)n1nc(-c2cccc(OCc3ccccc3Cl)c2)c2c(N)ncnc21 [Compound 21, 3-(3-(2-chlorobenzyloxy)phenyl)-1-isopropyl-1H-pyrazolo[3,4-d]pyrimidin-4-amine]
[1]
  inhibition at 3 µM: 68%
[2]
  inhibition at 3 µM: 9%

## O=C(CCC1CCNCC1)Nc1nc2ccc(C(=O)c3ccccc3)cc2[nH]1 [Compound 117]
[1]
  inhibition at 3 µM: 71%
[2]
  inhibition at 3 µM: 74%

## Cn1ncc2cc(-c3nn(C(C)(C)C)c4ncnc(N)c34)ccc21 [Compound 142]
[1]
  inhibition at 3 µM: 98%
[2]
  inhibition at 3 µM: 97%

## Cc1ccc(S(=O)(=O)Nc2ccc(-c3nn(-c4ccccc4)c4ncnc(N)c34)cc2)cc1 [Compound 75, N-(4-(4-amino-1-phenyl-1H-pyrazolo[3,4-d]pyrimidin-3-yl)phenyl)-4-methylbenzenesulfonamide]
[1]
  inhibition at 3 µM: 75%
[2]
  inhibition at 3 µM: 5%

## CC(C)(C)n1nc(-c2ccc(-c3ccccc3)cc2)c2c(N)ncnc21 [Compound 136]
[1]
  inhibition at 3 µM: 90%
[2]
  inhibition at 3 µM: 16%

## CC(C)c1cccc(-c2nn(C(C)C)c3ncnc(N)c23)c1 [Compound 7e, 1-isopropyl-3-(3-isopropylphenyl)-1H-pyrazolo[3,4-d]pyrimidin-4-amine]
[1]
  inhibition at 3 µM: 74%
[2]
  inhibition at 3 µM: 52%

## N[C@@H](Cc1ccc(O)cc1)C(=O)Nc1nc2ccc(C(=O)c3ccccc3)cc2[nH]1 [Compound 109]
[1]
  inhibition at 3 µM: 54%
[2]
  inhibition at 3 µM: 30%

## NCCCC(=O)Nc1nc2ccc(C(=O)c3ccccc3)cc2[nH]1 [Compound 103]
[1]
  inhibition at 3 µM: 75%
[2]
  inhibition at 3 µM: 58%

## N#Cc1cccc(-c2ccc(-c3nn(CC4CCNCC4)c4ncnc(N)c34)cc2)c1 [Compound 74, 4′-(4-amino-1-(piperidin-4-ylmethyl)-1H-pyrazolo[3,4-d]pyrimidin-3-yl)biphenyl-3-carbonitrile]
[1]
  inhibition at 3 µM: 97%
[2]
  inhibition at 3 µM: 68%

## CC(C)n1nc(-c2ccc3cc(OCc4cc(F)cc(Cl)c4)ccc3c2)c2c(N)ncnc21 [Compound 52, 3-(6-(3-chloro-5-fluorobenzyloxy)naphthalen-2-yl)-1-isopropyl-1H-pyrazolo[3,4-d]pyrimidin-4-amine]
[1]
  inhibition at 3 µM: 93%
[2]
  inhibition at 3 µM: 62%

## Nc1ncnc2c1c(-c1ccc3oc(-c4ccccc4)nc3c1)nn2CC1CCNCC1 [Compound 120]
[1]
  inhibition at 3 µM: 101%
[2]
  inhibition at 3 µM: 90%

## CCC(=O)Nc1ccc(-c2nn(C(C)(C)C)c3ncnc(N)c23)cc1 [Compound 67, N-(4-(4-amino-1-tert-butyl-1H-pyrazolo[3,4-d]pyrimidin-3-yl)phenyl)propionamide]
[1]
  inhibition at 3 µM: 96%
[2]
  inhibition at 3 µM: 49%

## CC(C)COc1ccc2cc(-c3nn(C(C)(C)C)c4ncnc(N)c34)ccc2c1 [Compound 130]
[1]
  inhibition at 3 µM: 95%
[2]
  inhibition at 3 µM: 47%

## Nc1ncnc2c1c(Cc1cccc3ccccc13)nn2CCC1CCNCC1 [Compound 5i, 3-(naphthalen-1-ylmethyl)-1-(2-(piperidin-4-yl)ethyl)-1H-pyrazolo[3,4-d]pyrimidin-4-amine]
[1]
  inhibition at 3 µM: 58%
[2]
  inhibition at 3 µM: 80%

## Cc1cccc(-c2nn(C(C)(C)C)c3ncnc(N)c23)c1 [Compound 134]
[1]
  inhibition at 3 µM: 89%
[2]
  inhibition at 3 µM: 87%

## CC(C)(C)OC(=O)NCCC(=O)Nc1nc2ccc(C(=O)c3ccccc3)cc2[nH]1 [Compound 93]
[1]
  inhibition at 3 µM: 64%
[2]
  inhibition at 3 µM: 49%

## CC(C)n1nc(-c2ccc3cc(OCc4ccc(CC(F)(F)F)c(Cl)c4)ccc3c2)c2c(N)ncnc21 [Compound 51, 3-(6-(3-chloro-4-(2,2,2-trifluoroethyl)benzyloxy)naphthalen-2-yl)-1-isopropyl-1H-pyrazolo[3,4-d]pyrimidin-4-amine]
[1]
  inhibition at 3 µM: 86%
[2]
  inhibition at 3 µM: 92%

## CCOc1ccc2cc(-c3nn(C(C)(C)C)c4ncnc(N)c34)ccc2c1 [Compound 137]
[1]
  inhibition at 3 µM: 95%
[2]
  inhibition at 3 µM: 95%

## CC(C)n1nc(-c2ccc3cc(OCc4ccccc4Cl)ccc3c2)c2c(N)ncnc21 [Compound 46, 3-(6-(2-chlorobenzyloxy)naphthalen-2-yl)-1-isopropyl-1H-pyrazolo[3,4-d]pyrimidin-4-amine]
[1]
  inhibition at 3 µM: 95%
[2]
  inhibition at 3 µM: 52%

## Cn1ccc2cc(-c3nn(CC4CCNCC4)c4ncnc(N)c34)ccc21 [Compound 57, 3-(1-methyl-1H-indol-5-yl)-1-(piperidin-4-ylmethyl)-1H-pyrazolo[3,4-d]pyrimidin-4-amine]
[1]
  inhibition at 3 µM: 85%
[2]
  inhibition at 3 µM: 82%

## O=C(NCCO)Nc1nc2ccc(C(=O)c3ccccc3)cc2[nH]1 [Compound 90]
[1]
  inhibition at 3 µM: 77%
[2]
  inhibition at 3 µM: 64%

## CC(C)n1nc(-c2ccc3cc(OCc4ccc(Cl)cc4)ccc3c2)c2c(N)ncnc21 [Compound 56, 3-(6-(4-chlorobenzyloxy)naphthalen-2-yl)-1-isopropyl-1H-pyrazolo[3,4-d]pyrimidin-4-amine]
[1]
  inhibition at 3 µM: 93%
[2]
  inhibition at 3 µM: 73%

## CC(C)n1nc(Cc2cccc3ccccc23)c2c(N)ncnc21 [Compound 3, 1-isopropyl-3-(naphthalen-1-ylmethyl)-1H-pyrazolo[3,4-d]pyrimidin-4-amine]
[1]
  inhibition at 3 µM: 78%
[2]
  inhibition at 3 µM: 76%

## CC(C)(C)n1ncc2c(N)ncnc21 [Compound 123]
[1]
  inhibition at 3 µM: 62%
[2]
  inhibition at 3 µM: 4%

## Cc1ccccc1COc1ccc2cc(-c3nn(C(C)C)c4ncnc(N)c34)ccc2c1 [Compound 49, 1-isopropyl-3-(6-(2-methylbenzyloxy)naphthalen-2-yl)-1H-pyrazolo[3,4-d]pyrimidin-4-amine]
[1]
  inhibition at 3 µM: 88%
[2]
  inhibition at 3 µM: 22%

## COc1ccc2cc(-c3nc(C(C)(C)C)n4ccnc(N)c34)ccc2c1 [Compound 71, 3-tert-butyl-1-(6-methoxynaphthalen-2-yl)imidazo[1,5-a]pyrazin-8-amine]
[1]
  inhibition at 3 µM: 101%
[2]
  inhibition at 3 µM: 98%

## O=C(NCCC1CCCNC1)Nc1nc2ccc(C(=O)c3ccccc3)cc2[nH]1 (stereo not drawn) [Compound 91]
[1]
  inhibition at 3 µM: 73%
[2]
  inhibition at 3 µM: 59%

## Nc1ncnc2c1c(-c1ccc(-c3ccccc3)c(F)c1)nn2CC1CCNCC1 [Compound 73, 3-(2-fluorobiphenyl-4-yl)-1-(piperidin-4-ylmethyl)-1H-pyrazolo[3,4-d]pyrimidin-4-amine]
[1]
  inhibition at 3 µM: 87%
[2]
  inhibition at 3 µM: 14%

## Nc1ncnc2c1c(-c1ccc3ncccc3c1)nn2CC1CCNCC1 [Compound 125]
[1]
  inhibition at 3 µM: 89%
[2]
  inhibition at 3 µM: 93%

## CC(C)(C)n1nc(Br)c2c(N)ncnc21 [Compound 129]
[1]
  inhibition at 3 µM: 79%
[2]
  inhibition at 3 µM: 9%

## Cn1ncc2cc(-c3nn(CC4CCNCC4)c4ncnc(N)c34)ccc21 [Compound 121]
[1]
  inhibition at 3 µM: 93%
[2]
  inhibition at 3 µM: 93%

## CC(C)n1nc(-c2cccc(OCc3ccccc3)c2)c2c(N)ncnc21 [Compound 7aa, 3-(3-(benzyloxy)phenyl)-1-isopropyl-1H-pyrazolo[3,4-d]pyrimidin-4-amine]
[1]
  inhibition at 3 µM: 75%
[2]
  inhibition at 3 µM: 18%

— patent US11247972B2, “Compositions and methods for treating toxoplasmosis, cryptosporidiosis, and other apicomplexan protozoan related diseases” (University of Washington through its Center for …, priority 2010, dated 2022)
